Experimental data reported in patent US20240148714A1, “Triple Negative Breast Cancer Treatment Method” (Exelixis, Inc., priority 2016, published 2024).
Where “and” joins values, the source holds several entries; their conditions need not be identical. Equal values may be shown once.

System: metastatic TNBC
Assay: Phase II study of cabozantinib in metastatic TNBC: objective response (RECIST 1.1), clinical benefit, PFS
Type: in vivo, human
Procedure: Experimental design: In this single-arm, two-stage phase 2 study, patients with metastatic TNBC with measurable disease by RECIST and up to 3 lines of prior chemotherapy for metastatic disease received cabozantinib 60 mg daily on a 21-day cycle. Patients were restaged 6 weeks following treatment initiation and every 9 weeks thereafter. The primary endpoint was objective response rate (ORR). Predefined secondary endpoints included progression free survival (PFS) and toxicity. Here, we examined cellular biomarkers using flow cytometry in serial blood samples collected at days 0 (baseline/pre-treatment), 8, 22, 43, and 64 of cabozantinib treatment. Mixed effect models were used to evaluate the changes of biomarker levels over time from baseline to day 64. Wilcoxon signed rank test were used to evaluate whether the change of biomarker levels from baseline to day 8 were different by clinical benefit. Adjusted p-values controlling false discovery rate were used to adjust for multiple comparisons.
Study Design and Treatment: As indicated, this was a single-arm, two-stage phase II study assessing the efficacy of cabozantinib monotherapy in patients with mTNBC. Treatment consisted of oral dosing of cabozantinib at 60 mg daily over a 21-day cycle. Patients underwent radiographic restaging at 6 weeks and every 9 weeks thereafter. Patients with complete or partial RECIST responses continued to receive study treatment, whereas those with progressive disease were taken off study. Dose reductions for toxicity occurred if patients experienced grade 3 or 4 neutropenia or thrombocytopenia, or nonhematologic adverse events. From the starting dose of 60 mg daily, doses were reduced as needed to 40 and 20 mg daily. For the purposes of determining the effect of cabozantinib treatment on pain and analgesic medication use, pain was assessed by a participant-reported questionnaire, and daily analgesic medication usage was recorded. These were completed at baseline and during week 3, 6, and every 6 weeks thereafter until the date of the participant's last follow-up visit.
The primary endpoint was the activity of cabozantinib, as defined by objective response rate (ORR) in patients with mTNBC. Predefined secondary endpoints included progression-free survival (PFS), toxicity, and pain. Correlative studies included analysis of MET and phospho-MET expression in archival tumor tissue, and molecular and cellular biomarkers of cabozantinib. Cellular biomarkers were examined using flow cytometry in serial blood samples collected at days 0 (baseline/pre-treatment), 8, 22, 43, and 64 of cabozantinib treatment. Mixed effect models were used to evaluate the changes of biomarker levels over time from baseline to day 64. Wilcoxon signed rank test were used to evaluate whether the change of biomarker levels from baseline to day 8 were different by clinical benefit. Adjusted p-values controlling false discovery rate were used to adjust for multiple comparisons.
Statistical Analysis: This study used Simon optimal two-stage design to control type I error at 10% and have at least 90% power to detect the acceptable response rate. By study design, 13 participants were to be enrolled in the first stage. If there was at least 1 response, accrual was to continue to the second stage, where an additional 22 patients were to be enrolled. If there were at least 4 responses among the 35 total patients, the regimen was to be considered worthy of further study. With a true response rate of 5%, the chance that the regimen would be declared worthy of further study was 10%, and with a true response rate of 20%, the chance that the regimen would be declared worthy of further study was 90%.
Objective response was evaluated by using RECIST1.1. […] Objective response rate was reported with 95% confidence interval (CI) for the two stage designs. PFS and 95% CI were described using Kaplan-Meier methods. […]

SMILES: COc1cc2nccc(Oc3ccc(NC(=O)C4(C(=O)Nc5ccc(F)cc5)CC4)cc3)c2cc1OC [cabozantinib]
- clinical benefit rate (PR+SD) at 15 weeks (60 mg daily, 35 patients): 34%
- median PFS (60 mg daily, 35 patients): 2.0 months
- objective response rate (ORR) (60 mg daily, 35 patients, as previously reported (ASCO 2015)): 11%
- objective response rate (ORR) (60 mg daily, 35 patients, confirmed PR, RECIST 1.1): 9%
- time on treatment of individual patients with PR (17 cycles and 8 cycles of protocol therapy): 11.7 months and 6.5 months
- Best overall response: Not evaluated due to toxicity (35 patients): 1 (3) n (%)
- Best overall response: PD (35 patients): 11 (31) n (%)
- Best overall response: PR (35 patients): 3 (9) n (%)
- Best overall response: SD (35 patients): 20 (57) n (%)
- Best overall response: SD <15 weeks (35 patients): 11 (31) n (%)
- Best overall response: SD ≥15 weeks (35 patients): 9 (26) n (%)
- median PFS (high baseline sMET (>795 ng/mL median value)): 3.3 months
- patients off treatment due to progressive disease (human, in vivo): 91%
- patients with clinically progressive disease before protocol specified tumor assessment (included in PD): ^aIncluding 7 patients(20%) with clinically progressive disease before protocol specified tumor assessment.
- median PFS (low baseline sMET (<795 ng/mL)): 1.3 months
- patients who achieved PR (of 35 patients): 3 patients
